This is an account of results in patent US6667311B2, “Nitrogen substituted biaryl purine derivatives as potent antiproliferative agents” (Albany Molecular Research, Inc., priority 2001, dated 2003).

The GI50 is the concentration at which growth is held to half of that of the control. The low end stands for greater sensitivity of the cells, the high end for lower sensitivity of the cells.

The test system of one experiment is MALME-3M. The experiment in a line: NCI growth inhibition, MALME-3M. Conditions: Homo sapiens; MALME-3M (Melanoma). Type of experiment: cell-based, human.
Another experiment deals with CAKI-1. The experiment in a line: NCI growth inhibition, CAKI-1. Type of experiment: cell-based, human. Conditions: Homo sapiens; CAKI-1 (Renal).
The next experiment concerns SK-OV-3. In words: NCI growth inhibition, SK-OV-3. In kind it is cell-based, human. The settings on record: Homo sapiens; SK-OV-3 (Ovarian).
A further experiment has as its system HeLa S-3 cells. In words: Inhibition of cell growth, HeLa cells (SRB). In kind it is cell-based, human. Conditions: for IC50: Table 2, growth inhibition, 2 days, replicate experiments, read-out: CI50 HeLa Cells. As to the method:
Growth inhibition (GI50) values were measured with HeLa S-3 cells selected for growth on plastic. […] One day later, a control plate was fixed by addition of TCA to 5%. After five rinses with tap water the plate was air dried and stored at 4° C. Test compounds were added to the remaining plates at 10-fold dilutions between 0.01 and 100 μM. Two days later all plates were fixed as described above. Cells were then stained by the addition of 100μl per well of 0.4% sulforhodamine B (SRB) in 1% acetic acid for 30 min at 4° C. Wells were then quickly rinsed 5×with acetic acid (1%) and allowed to air dry. The SRB was then solubilized by the addition of 100 μl per well of unbuffered 10 mM Tris base. Dye was quantified by measuring absorbance at 490 nm on a Molecular Devices kinetic microplate reader. Growth at each inhibitor concentration relative to the untreated control was calculated according to the following equation: percent growth=100×(T−To)/(C−To), where T was the average optical density (OD) of the test wells after 2 days of treatment, To was the average OD of the wells in the control plate on day 0 and C was the average OD of untreated wells. Plots of percent growth versus inhibitor concentration were used to determine the GI50.

Experiment [1] concerns Tumor Cells in Hollow Fibers. In words: NCI Hollow Fiber Assay. Type of experiment: in vivo.
A further experiment relates to NCI-H460. In words: NCI growth inhibition, NCI-H460. In kind it is cell-based, human. Conditions: Homo sapiens; NCI-H460 (Non-Small Cell Lung).
The subject of another experiment is SK-MEL-5. In words: NCI growth inhibition, SK-MEL-5. In kind it is cell-based, human. The settings on record: Homo sapiens; SK-MEL-5 (Melanoma).
The next experiment concerns the target CyclinA/cdk2 (Homo sapiens, UniProt P24941). The experiment in a line: CyclinA/cdk2 protein kinase assay (histone H1 phosphorylation, immunopurified complex from HeLa). Conditions: read-out: IC50 CyclinA cdk2; Table 2; replicate experiments.
The next experiment concerns the target T1, CyclinB/cdk1 (Homo sapiens, UniProt P06493).
T1 construct: Monoclonal antibody against cyclinB (GNS1) is added to the supernatant; endogenous in cells
The experiment in a line: CyclinB/cdk1 protein kinase assay (histone H1 phosphorylation, immunopurified complex from HeLa). In kind it is biochemical. The settings on record: Table 2; replicate experiments.

In another experiment the target is CyclinE/cdk2 (Homo sapiens, UniProt P24941). The experiment in a line: CyclinE/cdk2 protein kinase assay (histone H1 phosphorylation, immunopurified complex from HeLa). Conditions: read-out: IC50 CyclinE cdk2; Table 2; replicate experiments.

Entries after “also recorded” stand apart in the source; their conditions may differ. Read-outs that look alike come from different tables or passages of the source.

T1 sequence (P06493 whole entry): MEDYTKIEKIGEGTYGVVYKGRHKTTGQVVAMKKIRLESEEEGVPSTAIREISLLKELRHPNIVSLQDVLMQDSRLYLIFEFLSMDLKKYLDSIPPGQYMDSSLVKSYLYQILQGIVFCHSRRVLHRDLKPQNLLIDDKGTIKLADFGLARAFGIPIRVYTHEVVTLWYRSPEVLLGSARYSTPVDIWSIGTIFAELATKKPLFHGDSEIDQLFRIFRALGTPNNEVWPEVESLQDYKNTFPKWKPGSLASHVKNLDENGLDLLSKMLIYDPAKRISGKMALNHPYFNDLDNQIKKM
T1 sequence (P14635 whole entry partner): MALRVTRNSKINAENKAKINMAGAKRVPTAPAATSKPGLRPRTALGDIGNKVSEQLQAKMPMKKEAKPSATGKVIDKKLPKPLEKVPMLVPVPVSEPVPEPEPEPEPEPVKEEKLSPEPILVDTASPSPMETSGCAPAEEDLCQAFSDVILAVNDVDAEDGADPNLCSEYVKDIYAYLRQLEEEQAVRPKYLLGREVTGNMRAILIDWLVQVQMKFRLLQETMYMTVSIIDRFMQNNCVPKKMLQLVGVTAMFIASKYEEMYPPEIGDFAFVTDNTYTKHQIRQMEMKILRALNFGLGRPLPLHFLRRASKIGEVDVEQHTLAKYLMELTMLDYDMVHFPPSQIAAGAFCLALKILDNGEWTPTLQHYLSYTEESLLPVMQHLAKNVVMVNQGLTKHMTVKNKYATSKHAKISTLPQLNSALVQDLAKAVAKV
Description for CyclinB/cdk1: HeLa cells are blocked at the G1/S border by culturing in the presence of 2 mM thymidine for 20 h. The cells are then rinsed 3×in phosphate buffered saline and resuspended in regular medium. After 4 h of culture, the mitotic blocker, nocodazole is added to a final concentration of 75 ng/ml. […] The lysate is then clarified by centrifugation at 10,000×g for 10 min. The supernatant is collected and diluted 1:5 with Lysis Buffer. Monoclonal antibody against cyclinB (GNS1) is added to the supernatant to a final concentration of 5 μg/ml and shaken at 4° C. for 2 h. The immune complexes are then collected by the addition of 200 μl of protein agarose beads for 1 h. The beads are washed 4×in lysis buffer and 1×in kinase assay buffer.
Duplicate assays were performed at each concentration.

Take `CC(C)n1cnc2c(NCc3ccc(-c4ccsc4)cc3)nc(N[C@H]3CC[C@H](N)CC3)nc21` [Compound 12]: the GI50 is 10 nM in the experiment with MALME-3M; 38 nM with CAKI-1; 18 nM in the experiment on SK-OV-3; 15 nM with NCI-H460; 14 nM with SK-MEL-5. Also, the IC50 in the experiment on HeLa S-3 cells came out at 0.1 nM. Moreover, the “Cell Types Killed” value in experiment [1] is on record as “H522, MDA-MB-435”.
In the case of `CC[C@H](CO)Nc1nc(NCc2ccc(-c3ccccc3)cc2)c2ncn(C(C)C)c2n1` [Compound 73], in the experiment on HeLa S-3 cells, the IC50 came out at 500 nM.
On to `CC(C)n1cnc2c(NCc3ccc(-c4ccccn4)cc3)nc(N[C@H]3CC[C@H](N)CC3)nc21` [Compound 78], for which the “Cell Types Killed” value in [1] was “H23, H522, OVCAR3, SF29”.
For `CC(=O)N[C@H]1CC[C@H](Nc2nc(NCc3ccc(-c4ccccn4)cc3)c3ncn(C(C)C)c3n2)CC1` [Compound 79], at CyclinA/cdk2, the IC50 is 10000 nM.
On to `CC(C)n1cnc2c(NCc3ccc(-c4ccccc4)nc3)nc(N[C@H]3CC[C@H](N)CC3)nc21` [Compound 86], for which the “Cell Types Killed” value in experiment [1] is “OVCAR 3, OVCAR 5, H522”.
In the case of `CC(C)n1cnc2c(NCc3ccc(-c4ccccn4)nc3)nc(N[C@H]3CC[C@H](N)CC3)nc21` [Compound 93], the IC50 with HeLa S-3 cells is 300 nM.
Consider `CC(=O)N[C@H]1CC[C@H](Nc2nc(NCc3ccc(-c4ccccn4)nc3)c3ncn(C(C)C)c3n2)CC1` [Compound 94], for which the “Cell Types Killed” value in experiment [1] was “COLO 205, OVCAR-3, H522”.
With `CC(=O)N[C@H]1CC[C@H](Nc2nc(NCc3ccc(-c4ccc(C)cc4)cc3)c3ncn(C(C)C)c3n2)CC1` [Compound 97], on CyclinB/cdk1, the IC50 came to 10000 nM.
On to `CC(C)n1cnc2c(NCc3ccc(-c4cccnc4)cc3)nc(N[C@H]3CC[C@H](N)CC3)nc21` [Compound 103], for which, in [1], the “Cell Types Killed” value is recorded as “OVCAR 3,OVCAR 5,; also recorded: H522, MDA-MB-435, SF295”.
For `CC(=O)N[C@@H](C)CNc1nc(NCc2ccc(-c3ccccc3)cc2)c2ncn(C(C)C)c2n1` [Compound 108], the IC50 on CyclinA/cdk2 is 10000 nM.
On to `CC(=O)N[C@H]1CC[C@H](Nc2nc(NCc3ccc(-c4cccc(Cl)c4)cc3)c3ncn(C(C)C)c3n2)CC1` [Compound 110], for which, in the experiment with HeLa S-3 cells, the IC50 was determined as 20 nM.
Consider `CC(C)n1cnc2c(NCc3ccc(-c4cccs4)cc3)nc(N[C@H]3CC[C@H](N)CC3)nc21` [Compound 111], for which the IC50 at CyclinE/cdk2 was 70 nM; at CyclinA/cdk2 it was 200 nM.
In the case of `CC(=O)N[C@H]1CC[C@H](Nc2nc(NCc3ccc(-c4ccsc4)cc3)c3ncn(C(C)C)c3n2)CC1` [Compound 113], the “Cell Types Killed” value in [1] is listed as “H23, H522, OVCAR-3”.
The same measure, in the same setting: the value for `CC(=O)N[C@H]1CC[C@H](Nc2nc(NCc3ccc(-c4ccsc4)nc3)c3ncn(C(C)C)c3n2)CC1` [Compound 124] was “H23, H522, OVCAR-3,; also recorded: MDA-MB-435”.
For `CC[C@H](CO)Nc1nc(NCc2cccnc2)c2ncn(C(C)C)c2n1` [Compound 127, reference compound], the GI50 in the experiment with HeLa S-3 cells (Homo sapiens, HeLa S3, Table 3, reference compounds in comparison) lay in the range of 7000 to 15000 nM.
As for `CC(=O)N[C@H]1CC[C@H](Nc2nc(NCc3ccc(-c4cccc(C)c4)cc3)c3ncn(C(C)C)c3n2)CC1` [Compound 178], the IC50 with HeLa S-3 cells (Homo sapiens, HeLa S3, 48 h) came to 400 nM.
`COc1cccc(-c2ccc(CNc3nc(N[C@H]4CC[C@H](NC(C)=O)CC4)nc4c3ncn4C(C)C)cc2)c1` [Compound 180]: the IC50 in the experiment with HeLa S-3 cells (Homo sapiens, HeLa S3, 48 h) came to 400 nM.
As to `CC(C)n1cnc2c(NCc3ccc(-c4ccccc4)cn3)nc(N[C@H]3CC[C@H](N)CC3)nc21` [Compound 229], in the experiment with HeLa S-3 cells (Homo sapiens, HeLa S3, 48 h), the IC50 was 400 nM.
